# From paper PMC4604408, “Targeting the Parasite's DNA with Methyltriazenyl Purine Analogs Is a Safe, Selective, and Efficacious Antitrypanosomal Strategy” (Antimicrobial Agents and Chemotherapy, 2015)
# “Also recorded” adds a separate entry of the source. Like-named read-outs stand apart in the source and are kept apart here.
# Legend:
# [1] = molecular target: T. brucei H2 (hypoxanthine transporter 2 of T. brucei brucei); design: method as in PMID 9364969; conditions: natural substrates; read-out: Transport (Ki value) T. brucei H2; cited from earlier work
# Tbb msh2+/+ = assay: microbe, parasite or virus in culture; assay type: cell-based, Trypanosoma brucei; conditions: read-out: Tbb msh2+/+ (EC50; µM) AVG
# Tbb msh2+/- = assay: microbe, parasite or virus in culture; assay type: cell-based, Trypanosoma brucei; conditions: read-out: Tbb msh2+/- (EC50; µM) AVG
# Tbb msh2-/- = assay: microbe, parasite or virus in culture; assay type: cell-based, Trypanosoma brucei; conditions: for EC50: read-out: Tbb msh2-/- (EC50; µM) AVG
# [2] = tested on: T. brucei brucei WT (strain 427); assay: microbe, parasite or virus in culture; assay type: cell-based; conditions: for SI, in vitro selectivity index: EC50(HEK)/EC50(T. brucei brucei WT); for EC50: Trypanosoma brucei, read-out: In vitro activity (EC50) T. brucei brucei WT
# [3] = tested on: T. brucei brucei 427 tbat1^−/−; assay: microbe, parasite or virus in culture; assay type: cell-based; conditions: for EC50: Trypanosoma brucei, read-out: In vitro activity (EC50) T. brucei brucei 427 tbat1^−/−
# [4] = molecular target: T. brucei H2 (hypoxanthine transporter 2 of T. brucei brucei); assay type: cell-based; conditions: read-out: Transport (Ki value) T. brucei H2
# [5] = tested on: His– S. typhimurium strains TA98 and TAMix; assay: Ames II mutagenicity assay; assay type: cell-based, Salmonella typhimurium; conditions: before (–S9) and after (+S9) metabolic activation, 62.5 µM to 2 mM
# [6] = tested on: freshly isolated rat hepatocytes; assay: hepatotoxicity on freshly isolated rat hepatocytes; assay type: cell-based; conditions: 100 µM, up to 120 min
# Experimental: page 11: Figure S3 A B C 125 125 125 100 100 100 75 75 75 50 50 50 25 Contr ol 25 Contr ol 25 Contr ol 0 + NA1371 0 +NA1371 0 +NA1371 0 30 60 90 120 0 30 60 90 120 0 30 60 90 120 […] ) Figure S3. […] (A) Hepatocytes from male Sprague-Dawley rats were isolated as described (4, 5) and hepatotoxicity assays were performed as described (6). […] or left untreated. Cell viability was determined by a Trypan blue exclusion test. Values are normalized to t=0 min (%). (B) The reduced glutathione (GSH) content of hepatocytes was determined by an O-phthaldehyde fluorimetric test. […] (C) The total protein content of hepatocytes was determined by a Lowry assay. […]
# [7] = tested on: T. brucei brucei (STIB 795); assay: mouse model of acute trypanosomiasis; assay type: in vivo; conditions: female NMRI mice, 50 mg/kg i.p. daily for 4 days from day 3 postinfection
# [8] = tested on: T. brucei rhodesiense (STIB 900); assay: stringent mouse model of trypanosomiasis; assay type: in vivo; conditions: female NMRI mice, 50 mg/kg i.p. for four consecutive days from day 3 postinfection
# Experimental: The experiments were performed essentially as described previously ([26]). Female NMRI mice were infected intraperitoneally (i.p.) with 10^4 bloodstream-form T. brucei brucei (strain STIB 795) or 3 × 10^3 T. brucei rhodesiense (strain STIB 900). Experimental groups of four mice were treated i.p. with test drug daily on four consecutive days starting from day 3 postinfection. A control group was infected but remained untreated. The tail blood of each mouse was checked for parasitemia up to 60 days postinfection; mice were culled when parasitemia was >10^8 trypanosomes/ml of blood. Surviving and aparasitemic mice at day 60 were considered cured and were euthanized. All protocols and procedures used in this study were reviewed and approved by the local veterinary authorities of the Canton Basel-Stadt, Switzerland.
# Figure S4. Methyltriazenyl purine 1 has a high cure rate in acute T. b. rhodesiense infection in vivo. Kaplan–Meier survival plot for female NMRI mice (n = 4 per group) after infection with T. b. rhodesiense (STIB900) (inoculum 3×10^3 parasites). Intraperitoneal injection with 1 dissolved in DMSO started 3 days after infection at a single dose of 50 mg/kg
# BF T. brucei brucei = assay: TUNEL assay for DNA strand breaks in trypanosomes; assay type: cell-based; conditions: 3 μM, 24 h
# [9] = assay type: in vivo; conditions: up to 10 × 50 mg/kg i.p. daily
# [10] = tested on: bloodstream-form T. brucei; assay: potency in Creek's minimal medium with inosine or hypoxanthine as purine source; assay type: cell-based
# BF T. brucei [11] = assay: growth curves of treated bloodstream-form trypanosomes; assay type: cell-based; conditions: 15 µM for 72 h in Fig. S7
# Experimental: Given its promising antiparasitic efficacy in vitro and in vivo, we selected lead compound 1 for further antitrypanosomal mechanism-of-action studies. […] We analyzed the DNA content of these cells over 24 h by flow cytometry (Fig. 3B; see also Fig. S7 in the supplemental material). After 4 h of exposure to 15 μM compound 1, we observed a decrease in the proportion of cells with normal diploid (2C) DNA content, whereas an aberrant population of cells started to appear with a DNA content between 2C and 4C. […] We also monitored the karyotype distribution of BF T. brucei over time (see Fig. S8 in the supplemental material), using DAPI staining to visualize nuclei (N) and kinetoplasts (K). Within the first 8 h (the normal time to complete one cell cycle) of exposure to compound 1, we observed a significant increase in 1N2K cells, with a coincident decrease in 1N1K and 2N2K. […]
# FIG 3 Methyltriazenyl purines cause cell cycle arrest in the G2/M phase in T. brucei. […] (b) DNA content of BF T. brucei in the presence or absence of 15 μM compound 1, as determined by propidium iodide staining of fixed cells and measured by fluorescence-activated cell sorting (FACS). […]
# Figure S7. […] B) Long term growth curve of bloodstream form T.b. brucei s427 cultures (seeded at 5 × 10^5 cells/mL) exposed to 15 µM of 1 (closed squares) or vehicle only (open circles) monitored for 72 hours. […]
# BF T. brucei [12] = assay: DNA content by propidium iodide staining and flow cytometry; assay type: cell-based; conditions: 15 μM, 24 h
# [13] = tested on: HEK293 (human embryonic kidney 293T cells); assay: cells; conditions: read-out: In vitro activity (EC50) HEK293
# [14] = spontaneous triazene hydrolysis by UV spectroscopy; conditions: 50 µM in PBS at 37 °C, physiological conditions, n=2
# physchem = conditions: buffer
# [15] = tested on: HEK293 (human embryonic kidney 293T cells)
# [16] = tested on: T. b. rhodesiense STIB 900; assay: microbe, parasite or virus in culture; assay type: cell-based; conditions: Trypanosoma brucei, read-out: Trypanosoma brucei rhodesiense EC50
# P. falciparum K1 strain = assay: microbe, parasite or virus in culture; assay type: cell-based; conditions: Plasmodium falciparum, K1, read-out: Plasmodium falciparum EC50
# [17] = inhibition of 0.05 μM [3H]hypoxanthine uptake, 60 s, mean ± SEM, n ≥ 3
# [18] = Creek's minimal medium, same concentration of inosine or hypoxanthine
SMILES,"SI, in vitro selectivity index [2]",EC50 [2],EC50 [3],EC50 (Tbb msh2+/+; Trypanosoma brucei),EC50 (Tbb msh2+/-; Trypanosoma brucei),EC50 (Tbb msh2-/-; Trypanosoma brucei),EC50 [13],further results
Nc1ncnc2[nH]cnc12 [Adenine],–,–,–,–,–,–,–,Ki [1]: 3.2 ± 1.1 µM
N.N.[Cl][Pt][Cl] [Cisplatin],–,–,–,–,–,–,–,EC50 (Tbb msh2+/+): 13.4 µM; EC50 (Tbb msh2+/-): 17.7 µM; EC50 (Tbb msh2-/-): 13.6 µM
"CC(=O)N(C)N=Nc1nc(O)c2[nH]cnc2n1 [Compound 1, 2-(3-acetyl-3-methyltriazen-1-yl)-6-hydroxypurine]",>595,0.42 ± 0.05 µM,0.52 ± 0.08 µM,0.87 µM,1.5 µM,3.9 µM,> 250 µM,"antitrypanosomal potency against BF T. brucei in vitro (in words) [2]: submicromolar; Ki [4]: 0.59 ± 0.15 µM; mutagenic activity in Ames II test [5]: negative (not mutagenic); also recorded: did not reveal any mutagenic activity; hepatotoxic effects, hepatocyte viability (Trypan blue exclusion) [6]: does not show toxic effects; also recorded: no hepatotoxic effects; total protein content of hepatocytes (Lowry assay) [6]: No protein loss; cure rate [7]: 100%; survival of treated mice [7]: > 60 days; cure rate [8]: 75%; increase in BrdU incorporation (DNA strand breaks) (BF T. brucei brucei): 2 fold; potency against cells with impaired or lost MSH2 activity (Tbb msh2-/-): reduced potency; tolerability [9]: well tolerated; sensitivity (EC50) in medium with inosine compared to hypoxanthine as purine source [10]: higher; effect on culture proliferation (BF T. brucei [11]): Cell growth is arrested and the cells eventually die; also recorded: arrested in its proliferation; DNA content of treated cells (BF T. brucei [12]): majority of cells having an apparent 4C DNA content; hydrolysis half-life [14]: ~6.8 h; half-life at 50 µM ([14]; PBS, hydrolysis half-life): 6.8 ± 0.4 h"
CN(N=Nc1nc(O)c2[nH]cnc2n1)C(=O)Oc1ccccc1 [Compound 2],>312,0.8 ± 0.07 µM,1.21 ± 0.19 µM,2.3 µM,4.3 µM,6.8 µM,> 250 µM,"Ki [4, 17]: 0.2 ± 0.06 µM; potency against cells with impaired or lost MSH2 activity (Tbb msh2-/-): reduced potency; half-life at 50 µM (physchem): 5.6 ± 0.3 h"
CCOC(=O)N(C)/N=N/c1nc(O)c2nc[nH]c2n1 [Compound 3],>136,1.84 ± 0.08 µM,2.86 ± 0.13 µM,–,–,–,> 250 µM,Ki [4]: 0.12 ± 0.03 µM
CN(N=Nc1nc(O)c2[nH]cnc2n1)C(=O)Oc1ccc([N+](=O)[O-])cc1 [Compound 4],>2,114 ± 34 µM,157 ± 55 µM,–,–,–,> 250 µM,antitrypanosomal potency against BF T. brucei in vitro (in words) [2]: practically lost antitrypanosomal activity
O=C(NN=Nc1nc(O)c2[nH]cnc2n1)Oc1ccccc1 [Compound 5],–,> 100 µM,> 100 µM,192 µM,166 µM,168 µM,> 250 µM,"antitrypanosomal potency against BF T. brucei in vitro (in words) [2]: did not show any toxic effects; Ki [4, 17]: 0.09 ± 0.02 µM; toxicity to HEK293T cells (in words) [15]: did not show any toxic effects"
CN(N=Nc1nc(N)c2[nH]cnc2n1)C(=O)Oc1ccccc1 [Compound 6],>24,10.4 ± 0.5 µM,10.7 ± 0.4 µM,–,–,–,> 100 µM,"Ki [4, 17]: 0.46 ± 0.08 µM"
CN(N=Nc1nc(N)c2[nH]cnc2n1)C(=O)Oc1ccc([N+](=O)[O-])cc1 [Compound 7],>13,19.4 ± 4.1 µM,20.7 ± 4.6 µM,–,–,–,> 250 µM,–
CC(=O)N(C)/N=N/c1nc(OCc2ccccc2)c2nc[nH]c2n1 [Compound 9],–,–,–,–,–,–,–,Ki [4]: 5.8 ± 0.01 µM
CN(/N=N/c1nc(OCc2ccccc2)c2nc[nH]c2n1)C(=O)Oc1ccccc1 [Compound 10],–,–,–,–,–,–,–,"Ki [4, 17]: 22.5 ± 9.2 µM; EC50 [16]: 8.9 µM; EC50 (P. falciparum K1 strain): > 10 µM"
"N=C(N)c1ccc(/N=N/Nc2ccc(C(=N)N)cc2)cc1 [DIM, diminazene, reference compound]",–,0.26 ± 0.05 µM,7.9 ± 0.7 µM,0.5 µM,0.64 µM,0.68 µM,–,fold lower activity against tbat1^−/− cells than wild type ([3]; tbat1^−/− versus wild-type): 30 fold
Nc1nc2nc[nH]c2c(=O)[nH]1 [Guanine],–,–,–,–,–,–,–,Ki [1]: 0.36 ± 0.18 µM
O=c1[nH]cnc2nc[nH]c12 [Hypoxanthine],–,–,–,–,–,–,–,Ki [1]: 0.12 ± 0.03 µM
"COS(C)(=O)=O [MMS, methyl methanesulfonate]",–,–,–,48.9 µM,57.2 µM,46.7 µM,–,–
N=C(N)c1ccc(OCCCCCOc2ccc(C(=N)N)cc2)cc1 [Pentamidine],–,–,–,0.011 µM,0.011 µM,0.004 µM,–,"sensitivity (EC50) in medium with inosine compared to hypoxanthine as purine source [10, 18]: not significantly different"
"Cn1nnc2c(C(N)=O)ncn2c1=O [TMZ, temozolomide]",–,–,–,95 µM,204 µM,173 µM,–,potency against cells with impaired or lost MSH2 activity (Tbb msh2-/-): reduced potency
Cc1ccc(C(=O)Nc2ccc(S(=O)(=O)O)c3cc(S(=O)(=O)O)cc(S(=O)(=O)O)c23)cc1NC(=O)c1cccc(NC(=O)Nc2cccc(C(=O)Nc3cc(C(=O)Nc4ccc(S(=O)(=O)O)c5cc(S(=O)(=O)O)cc(S(=O)(=O)O)c45)ccc3C)c2)c1 [suramin],–,–,–,–,–,–,–,"sensitivity (EC50) in medium with inosine compared to hypoxanthine as purine source [10, 18]: not significantly different"
